Like-named read-outs stand apart in the source and are kept apart here.
What was measured:
[1] = test system: Key Broadleaf Weed and Crop Species; assay: Post-Emergent Test II: postemergent herbicidal activity, visual rating after 14 d (Table 7); assay type: in vivo; settings: post-emergence, 336 h; for pest or weed control at 35 g/ha: 35 g ai/ha; for pest or weed control at 70 g/ha: 70 g ai/ha; for pest or weed control at 140 g/ha: 140 g ai/ha
Method in brief: (§1)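 Visual scoring at 14 d, 0 (no injury) to 100 (complete kill), relative to untreated plants. Postemergent overhead track-sprayer application, 187 L/ha, at a top rate plus serial ½×–1/16× rates, to plants grown 7–21 d at about 23–29° C day under a 15 h photoperiod, then subirrigated.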

[2] = test system: Key Grass and Sedge Weeds as well as Grass Crops; assay: Post-Emergent Test II: postemergent herbicidal activity, visual rating after 14 d (Table 8); assay type: in vivo; settings: post-emergence, 336 h; for pest or weed control at 35 g/ha: 35 g ai/ha; for pest or weed control at 70 g/ha: 70 g ai/ha; for pest or weed control at 140 g/ha: 140 g ai/ha
Method in brief: as §1

[3] = ABUTH: velvetleaf (Abutilon theophrasti), read-out: Visual Growth Reduction (%) 14 Days After Application ABUTH
[4] = AMARE: redroot pigweed (Amaranthus retroflexus), read-out: Visual Growth Reduction (%) 14 Days After Application AMARE
[5] = BRSNN: oilseed rape, canola (Brassica napus), read-out: Visual Growth Reduction (%) 14 Days After Application BRSNN
[6] = CHEAL: lambsquarters (Chenopodium album), read-out: Visual Growth Reduction (%) 14 Days After Application CHEAL
[7] = EPHHL: wild poinsettia (Euphorbia heterophylla), read-out: Visual Growth Reduction (%) 14 Days After Application EPHHL
[8] = HELAN: sunflower (Helianthus annuus), read-out: Visual Growth Reduction (%) 14 Days After Application HELAN
[9] = barnyardgrass (Echinochloa crus-galli), read-out: Visual Growth Reduction (%) 14 Days After Application, ECHCG
[10] = giant foxtail (Setaria faberi), read-out: Visual Growth Reduction (%) 14 Days After Application, SETFA
[11] = maize, corn (Zea mays), read-out: Visual Growth Reduction (%) 14 Days After Application, ZEAMX
[12] = rice (Oryza sativa), read-out: Visual Growth Reduction (%) 14 Days After Application, ORYSA
[13] = wheat, spring (Triticum aestivum), read-out: Visual Growth Reduction (%) 14 Days After Application, TRZAS
[14] = yellow nutsedge (Cyperus esculentus), read-out: Visual Growth Reduction (%) 14 Days After Application, CYPES

`COC(=O)c1nc(-c2c(F)ccc3c2OC(F)(F)O3)cc(N)c1Cl` [Compound 90, Methyl 4-amino-3-chloro-6-(2,2,5-trifluorobenzo[d][1,3]dioxol-4-yl)picolinate] was tested, and the pest or weed control at 35 g/ha [1, 3] was 60 to 74%, the pest or weed control at 70 g/ha [1, 3] was 75 to 84% and the pest or weed control at 140 g/ha [1, 3] was 85 to 94%. The pest or weed control at 35 g/ha [1, 4] was 95 to 100%, the pest or weed control at 70 g/ha [1, 4] was 95 to 100% and the pest or weed control at 140 g/ha [1, 4] was 95 to 100%. For the same molecule, the pest or weed control at 35 g/ha [1, 5] was 0 to 29%, the pest or weed control at 70 g/ha [1, 5] was 0 to 29% and the pest or weed control at 140 g/ha [1, 5] was 60 to 74%. The pest or weed control at 35 g/ha [1, 6] was 85 to 94%, the pest or weed control at 70 g/ha [1, 6] was 95 to 100% and the pest or weed control at 140 g/ha [1, 6] was 95 to 100%. For the same molecule, the pest or weed control at 35 g/ha [1, 7] was 0 to 29%, the pest or weed control at 70 g/ha [1, 7] was 0 to 29% and the pest or weed control at 140 g/ha [1, 7] was 0 to 29%. For the same molecule, the pest or weed control at 35 g/ha [1, 8] was 0 to 29%, the pest or weed control at 70 g/ha [1, 8] was 0 to 29% and the pest or weed control at 140 g/ha [1, 8] was 0 to 29%. It also gave a pest or weed control at 35 g/ha [2, 9] of 0 to 29%, a pest or weed control at 70 g/ha [2, 9] of 0 to 29% and a pest or weed control at 140 g/ha [2, 9] of 0 to 29%. The pest or weed control at 35 g/ha [2, 10] was 0 to 29%, the pest or weed control at 70 g/ha [2, 10] was 0 to 29% and the pest or weed control at 140 g/ha [2, 10] was 0 to 29%. The pest or weed control at 35 g/ha [2, 11] was 0 to 29%, the pest or weed control at 70 g/ha [2, 11] was 0 to 29% and the pest or weed control at 140 g/ha [2, 11] was 0 to 29%. It also gave a pest or weed control at 35 g/ha [2, 12] of 0 to 29%, a pest or weed control at 70 g/ha [2, 12] of 0 to 29% and a pest or weed control at 140 g/ha [2, 12] of 0 to 29%. The pest or weed control at 35 g/ha [2, 13] was 0 to 29%, the pest or weed control at 70 g/ha [2, 13] was 0 to 29% and the pest or weed control at 140 g/ha [2, 13] was 0 to 29%. It also gave a pest or weed control at 35 g/ha [2, 14] of 0 to 29%, a pest or weed control at 70 g/ha [2, 14] of 0 to 29% and a pest or weed control at 140 g/ha [2, 14] of 0 to 29%.

Reference: patent US9149038B2, “4-amino-6-(heterocyclic)picolinates and 6-amino-2-(heterocyclic)pyrimidine-4-carboxylates and their use as herbicides” (Dow AgroSciences LLC, priority 2013, dated 2015)
